Reference: ChEMBL document CHEMBL1201862, “PubChem BioAssay data set” (2004)
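Test compounds were applied to cells in 96-well plates for 48 hours at 5 doses. GI50 is the concentration that inhibits growth by half.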 The source made the active and inactive calls. No stated cut-off is given here; in the data, active = GI50 up to about 1.1 µM and inactive = higher.

Tests used:
Assay in all cases: DTP human tumour cell line panel, 48 h
[1] = system: 786-0
[2] = system: A498
[3] = system: A549
[4] = system: ACHN
[5] = system: CAKI-1
[6] = system: CCRF-CEM
[7] = system: COLO 205
[8] = system: DLD-1
[9] = system: DMS-114
[10] = system: DMS-273
[11] = system: EKVX
[12] = system: HCC 2998
[13] = system: HCT-116
[14] = system: HCT-15
[15] = system: HL-60
[16] = system: HOP-18
[17] = system: HOP-62
[18] = system: HOP-92
[19] = system: HT-29
[20] = system: IGROV-1
[21] = system: K562
[22] = system: KM-20L2
[23] = system: KM12
[24] = system: LOX IMVI
[25] = system: LXFL 529
[26] = system: M14
[27] = system: M19-MEL
[28] = system: MOLT-4
[29] = system: Malme-3M
[30] = system: NCI-H226
[31] = system: NCI-H23
[32] = system: NCI-H460
[33] = system: NCI-H522
[34] = system: OVCAR-3
[35] = system: OVCAR-4
[36] = system: OVCAR-5
[37] = system: OVCAR-8
[38] = system: RPMI-8226
[39] = system: RXF 393
[40] = system: RXF 631
[41] = system: SF-268
[42] = system: SF-295
[43] = system: SF-539
[44] = system: SK-MEL-28
[45] = system: SK-MEL-2
[46] = system: SK-MEL-5
[47] = system: SK-OV-3
[48] = system: SN12C
[49] = system: SNB-19
[50] = system: SNB-75
[51] = system: SNB-78
[52] = system: SR
[53] = system: SW-620
[54] = system: TK-10
[55] = system: U-251
[56] = system: UACC-257
[57] = system: UACC-62
[58] = system: UO-31
[59] = system: XF498

`O=C1CCC[C@]2(CCCC(=O)N2)C1` was tested, and the GI50 [1] was > 100 µM (inactive), the GI50 [2] was > 100 µM (inactive) and the GI50 [3] was > 100 µM (inactive). For the same compound, the GI50 [4] was > 100 µM (inactive), the GI50 [5] was > 100 µM (inactive) and the GI50 [6] was > 100 µM (inactive). For the same compound, the GI50 [7] was > 100 µM (inactive), the GI50 [8] was > 100 µM (inactive) and the GI50 [9] was > 100 µM (inactive). The GI50 [10] was > 100 µM (inactive), the GI50 [11] was > 100 µM (inactive) and the GI50 [12] was > 100 µM (inactive). The GI50 [13] was > 100 µM (inactive), the GI50 [14] was over 100 µM and the GI50 [15] was > 100 µM (inactive). For the same compound, the GI50 [16] was > 100 µM (inactive), the GI50 [17] was > 100 µM (inactive) and the GI50 [18] was > 100 µM (inactive). For the same compound, the GI50 [19] was > 100 µM (inactive), the GI50 [20] was > 100 µM (inactive) and the GI50 [21] was > 100 µM (inactive). The GI50 [22] was > 100 µM (inactive), the GI50 [23] was > 100 µM (inactive) and the GI50 [24] was > 100 µM (inactive). The GI50 [25] was > 100 µM (inactive), the GI50 [26] was > 100 µM (inactive) and the GI50 [27] was > 100 µM (inactive). For the same compound, the GI50 [28] was > 100 µM (inactive), the GI50 [29] was > 100 µM (inactive) and the GI50 [30] was > 100 µM (inactive). For the same compound, the GI50 [31] was > 100 µM (inactive), the GI50 [32] was > 100 µM (inactive) and the GI50 [33] was > 100 µM (inactive). The GI50 [34] was > 100 µM (inactive), the GI50 [35] was > 100 µM (inactive) and the GI50 [36] was > 100 µM (inactive). For the same compound, the GI50 [37] was > 100 µM (inactive), the GI50 [38] was > 100 µM (inactive) and the GI50 [39] was > 100 µM (inactive). For the same compound, the GI50 [40] was > 100 µM (inactive), the GI50 [41] was > 100 µM (inactive) and the GI50 [42] was > 100 µM (inactive). For the same compound, the GI50 [43] was > 100 µM (inactive), the GI50 [44] was > 100 µM (inactive) and the GI50 [45] was > 100 µM (inactive). For the same compound, the GI50 [46] was > 100 µM (inactive), the GI50 [47] was > 100 µM (inactive) and the GI50 [48] was > 100 µM (inactive). For the same compound, the GI50 [49] was > 100 µM (inactive), the GI50 [50] was 77.4 µM (inactive) and the GI50 [51] was > 94 µM (inactive). The GI50 [52] was > 100 µM (inactive), the GI50 [53] was > 100 µM (inactive) and the GI50 [54] was > 100 µM (inactive). For the same compound, the GI50 [55] was > 100 µM (inactive), the GI50 [56] was > 100 µM (inactive) and the GI50 [57] was > 100 µM (inactive). For the same compound, the GI50 [58] was > 100 µM (inactive) and the GI50 [59] was > 100 µM (inactive).
